# Source: patent US20040247639A1, “Novel methods and compositions for the treatment or prevention of dysmenorrhoea and menstrual side effects: the use of phospholipase inhibitors” (priority 2000, published 2004)
# Like-named read-outs stand apart in the source and are kept apart here.
# How the values were obtained:
# [1] = test system: rat uterus; test: Oxytocin-challenged uterine work in uteri of ovarectomised, sex hormone-treated rats; design: maximum decrease in the intensity of the oxytocin response: dose or concentration left out as unconfirmed; settings: for inhibition at 0.1 µM: 100 nM; for change of oxytocin EC50 values: 1 nM-1 μM; for maximum uterine work with oxytocin: hormone-treated group challenged with 100 mU oxytocin
# Description: (§1) To examine the potential benefit of PLA2 inhibitors in treating dysmenorrhoea in women, an in vitro model was developed which measured the force and frequency of contractions in a rat uterus. When removed from the rat and placed in an organ bath, the uterus contracts rhythmically. The force of contraction varies with the profile of sex hormones produced by the animal at the different stages of the sexual (oestrus) cycle. Levels of oestrogen and progesterone fluctuate throughout the sexual cycle. To ensure a reproducible model, rats were ovarectomised and oestrogen, progesterone, a combination of oestrogen and progesterone and an inert control substance were given to mimic different stages of the sexual cycle.
# (§2) In a separate series of experiments, rats were ovarectomised then treated with sex hormones to ensure animals are at the same stage of the oestrus cycle. Uteri were removed from the rats 4 days after hormone treatment, allowed to equilibrate in the organ baths for 30 minutes, then the intensity of uterine contractions and frequency of the spontaneous contractions was measured. In the oestrogen-primed uteri, spontaneous uterine work was […], in progesterone-primed rats, 10±0.9 mNs^−1, in oestrogen plus progesterone-primed uteri, 9±1.5 mNs^−1 and in control uteri 7.9±0.6 mNs^−1.
# Challenging with oxytocin caused an increase in uterine work over baseline spontaneous activity.
# (§3) sPLA2 inhibitor 5 and ketoprofen were tested in the model to determine their ability to moderate both spontaneous contractions and contractile activity stimulated by oxytocin.
# [2] = test system: rat uterus; test: Oxytocin-induced contractions of rat uterus in organ bath (naturally-cycling rats)
# Description: as §1, with “To ensure a reproducible model, rats were ovarectomised and oestrogen, progesterone, a combination of oestrogen and progesterone and an inert control substance were given to mimic different stages of the sexual cycle.” left out
# (§4) In this model the uterine contractions are stimulated by the synthesis and release of eicosanoids and other contractile mediators by cells in the uterus, which then act on the muscle cells in the uterine wall to cause contraction. Compounds 5 and 9 were tested for their ability to inhibit spontaneous and oxytocin-induced contractions of a female rat uterus (described ahead). Addition of oxytocin, a hormone synthesised in the pituitary gland, gives uterine contractions of greater force and frequency by increasing the release of eicosanoids (Wassdal, I et al, 1998, Acta Physiol Scand, 164: 47-52, Burns, P D et al, 1998, Domest Anim Endocrinol, 15: 477-487, Asselin, E et al, 1997, Endocrinology, 138: 4798-4805). There is a relationship between the stage of the sexual cycle and the sensitivity of the uterus to oxytocin (Engstrom, T et al., 1999, J. Endocrinol., 161: 403-411). It has been shown that the contractions can be reduced if the synthesis of the mediators is blocked.
# (§5) Uteri were removed from rats, divided into 4 segments and placed in organ baths to measure force and frequency of contraction. Spontaneous contractions were measured, then each segment of uterus was challenged with oxytocin (1 μI.U. to 100 mI.U.). The force and frequency of contraction was measured after oxytocin addition and a concentration response curve generated. The drugs—either an sPLA2 inhibitor or a NSAID—was then added to the bath and allowed to equilibrate for 30 minutes. The drugs were tested at concentrations ranging from 1 nM to 10 μM with one piece of tissue per concentration. The tissue was then challenged with increasing concentrations of oxytocin to generate a second concentration-response curve. The EC50 concentrations in control and drug-treated tissue were determined from the curves and compared.
# [3] = test system: monocyte leukotriene release; settings: Cha, 1996; cited from earlier work
# [4] = test system: rat uterus; test: Spontaneous uterine work in uteri of ovarectomised, sex hormone-treated rats; settings: for spontaneous uterine work: uteri removed 4 days after hormone treatment of ovarectomised rats, n=4-5
# Description: as §1, §2, §3
# [5] = test system: rat uterus; test: Rat uterine contractions, spontaneous and oxytocin-induced together; settings: for EC50: Rattus norvegicus; for drug concentrations suppressing spontaneous and oxytocin-induced uterine contractions: rat uterine model
# Description: as §1
# as §4, with “Compounds 5 and 9 were tested for their ability to inhibit spontaneous and oxytocin-induced contractions of a female rat uterus (described ahead).” left out
# as §5
# [6] = biological target: T1, human non-pancreatic secretory PLA2 (type IIa) (Homo sapiens, UniProt P14555); test: Mixed micelle colorimetric assay for inhibition of human non-pancreatic sPLA2 (type IIa); type: biochemical; settings: thio-PC/Triton X-100 mixed micelles, 37° C., Dixon plot (FIG. 3); read-out: IC50 against human non-pancreatic sPLA2 (type IIa)
# T1 sequence (P14555 21-144): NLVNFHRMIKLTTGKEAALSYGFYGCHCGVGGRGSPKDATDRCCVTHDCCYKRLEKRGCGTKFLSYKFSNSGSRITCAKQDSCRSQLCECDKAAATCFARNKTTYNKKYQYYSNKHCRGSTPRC
# Protocol: Reagents were obtained commercially in the sPhospholipase A2 Assay Kit, Cayman Chemical Company MI USA. Buffer (25 mM Tris HCl at pH 7.5, 1 mg/mL BSA, 0.3 mM Triton X-100, 100 mM KCl, 10 mM CaCl2), substrate (diheptanoyl thio-phosphatidyl choline), DTNB (5,5′-dithiobis(2-nitrobenzoic acid)) and a 96 well plate were all provided. Recombinant hIIa-PLA2 was provided by the Garvan Institute for Medical Research. […] Standard inhibitor solutions were prepared from anhydrous DMSO. All samples were run in triplicate including the blank and control samples.
# […] Thio-PC is processed by s-PLA2 and the free thiol produced is detected with DTNB (Ellman's Reagent). 5-Thio-2-nitrobenzoic acid is detected spectrophotometrically at […]. IC50's were determined by assaying inhibitors at a range of concentrations.
# [7] = test system: rat uterus; test: Spontaneous contractions of rat uterus in organ bath (naturally-cycling rats)
# Description: as §1, with “To ensure a reproducible model, rats were ovarectomised and oestrogen, progesterone, a combination of oestrogen and progesterone and an inert control substance were given to mimic different stages of the sexual cycle.” left out
# as §4, §5
# [8] = biological target: T2, type V human non-pancreatic sPLA2 (Homo sapiens, UniProt P39877); settings: Chen, Y. et al, 1998; cited from earlier work
# T2 sequence (P39877 21-138): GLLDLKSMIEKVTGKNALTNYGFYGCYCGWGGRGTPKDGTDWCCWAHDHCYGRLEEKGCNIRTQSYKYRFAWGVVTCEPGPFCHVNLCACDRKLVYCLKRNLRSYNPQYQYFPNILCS
# [9] = Rattus norvegicus, Oestrogen (O) group, mean ± SEM, read-out: maximum inhibition of uterine work, oxytocin challenge
# [10] = Rattus norvegicus, Vehicle group, mean ± SEM, read-out: maximum inhibition of uterine work, oxytocin challenge
# [11] = Table 1, rat uterus model, read-out: ED50 Oxytocin-induced contractions
# [12] = range over spontaneous and oxytocin-induced contractions, read-out: EC50, inhibition of uterine contractions
# [13] = Table 1, rat uterus model, read-out: ED50 Spontaneous contractions
# [14] = Table 1, rat uterus model, NSAIDs
compound,measurement,setting,value
"O=C(O)CC[C@@H](CSc1ccc(Cc2ccccc2)cc1)NC(=O)CCCCCCc1ccccc1 [Compound 5, (S)-5-(4-Benzyl-phenylsulfanyl)-4-(7-phenyl-heptanoylamino)-pentanoic acid]",inhibition at 0.001 µM,"[1]; Rattus norvegicus, O + P group, 1 nM, mean ± SEM, read-out: maximum inhibition of uterine work, oxytocin challenge",62%
same,inhibition at 0.1 µM,[1]; [9],34%
same,inhibition at 0.01 µM,"[1]; Rattus norvegicus, Progesterone (P) group, 10 nM, mean ± SEM, read-out: maximum inhibition of uterine work, oxytocin challenge",65%
same,inhibition at 0.1 µM,[1]; [10],40%
same,change of oxytocin EC50 values,"[1]; oestrogen and progesterone treated uteri, n=5",did not inhibit
same,maximum decrease in the intensity of the oxytocin response,[1]; oestrogen treated uteri,34%±5%
same,change of oxytocin EC50 values,"[1]; oestrogen treated uteri, n=4",did not alter
same,EC50,"[2]; Rattus norvegicus, FIG. 5, n=3, read-out: ED50, uterine contractions induced by oxytocin",0.02 µM
same,EC50,[2]; [11],0.02 µM
same,IC50,[3],0.35 µM
same,effect on spontaneous activity,"[4]; oestrogen and progesterone treated uteri, 1 nM-1 μM, n=5",did not inhibit
same,effect on spontaneous activity,"[4]; oestrogen treated uteri, 10 nM, n=4, P<0.05",inhibited
same,effect on spontaneous activity,"[4]; oil vehicle (control) rats, 1 nM, n=4, P<0.05",inhibited spontaneous activity
same,effect on spontaneous activity,"[4]; progesterone treated uteri, 1 nM-1 μM, n=5",did not significantly inhibit
same,potency in inhibiting uterine contractions compared to NSAIDs,[5],"1,000 fold"
same,EC50,[5]; [12],0.001 to 0.02 µM
same,melting point,,89 to 91.5 °C
same,IC50,[6],0.042 µM
same,EC50,"[7]; Rattus norvegicus, FIG. 4, n=3, read-out: EC50, spontaneous activity of rat uteri in the organ bath",0.03 µM
same,EC50,[7]; [13],0.03 µM
"CC(C(=O)O)c1cccc(C(=O)c2ccccc2)c1 (stereo not drawn) [Ketoprofen, ketoprofen, reference compound]","maximum inhibition of uterine work, oxytocin challenge","[1]; O + P group, up to 10 μM",no inhibitory effect
same,inhibition at 0.1 µM,[1]; [9],29%
same,inhibition at 0.1 µM,"[1]; Rattus norvegicus, Progesterone (P) group, mean ± SEM, read-out: maximum inhibition of uterine work, oxytocin challenge",84%
same,inhibition at 0.1 µM,[1]; [10],79%
"Cc1c(Nc2ncccc2C(=O)O)cccc1C(F)(F)F [Flunixin, flunixin meglumine, reference compound]",effect on oxytocin-induced contractions,"[2]; FIG. 7, n=3",no effect
same,EC50,"[2]; Table 1, rat uterus model, NSAIDs, read-out: ED50 Oxytocin-induced contractions",1 µM
same,drug concentrations suppressing spontaneous and oxytocin-induced uterine contractions,[5],micromolar to millimolar
same,effect on spontaneous rat uterine contractions,"[7]; FIG. 7, 1 μM and 5 μM, n=3",reduced spontaneous contractions
same,EC50,"[7]; Table 1, rat uterus model, NSAIDs, read-out: ED50 Spontaneous contractions",1 µM
"Cc1c(CC(N)=O)c2cc(OCCCP(=O)(O)O)ccc2n1Cc1ccccc1 [Compound 9, [3-(1-Benzyl-3-carbamoylmethyl-2-methyl-1H-indol-5-yloxy)-propyl]-phosphonic acid]",EC50,[2]; [11],0.2 µM
same,IC50,[8],0.036 µM
same,EC50,"[5]; FIG. 6, n=2, read-out: EC50, spontaneous contraction and oxytocin induced contractions in rat uterus",~0.1 µM
same,EC50,[5]; [12],0.08 to 0.2 µM
same,EC50,[7]; [13],0.08 µM
"COc1ccc2cc([C@H](C)C(=O)O)ccc2c1 [naproxen, reference compound]",drug concentrations suppressing spontaneous and oxytocin-induced uterine contractions,[5],micromolar to millimolar
oestrogen,maximum uterine work with oxytocin,[1],15.7 mNs^−1
same,spontaneous uterine work,[4],7.2±1.4 mNs^−1
CC(=O)[C@H]1CC[C@H]2[C@@H]3CCC4=CC(=O)CC[C@]4(C)[C@H]3CC[C@]12C [progesterone],maximum uterine work with oxytocin,[1],0.9 mNs^−1
same,spontaneous uterine work,[4],10±0.9 mNs^−1
"CN1C(C(=O)Nc2ccccn2)=C(O)c2ccccc2S1(=O)=O [Piroxicam, piroxicam, reference compound]",ED50 Oxytocin-induced contractions,[2]; [14],No Effect
same,drug concentrations suppressing spontaneous and oxytocin-induced uterine contractions,[5],micromolar to millimolar
same,ED50 Spontaneous contractions,[7]; [14],No effect
